Legend:
[1] = system: intracellular S. aureus-mCherry; type: cell-based, S. aureus strain RN4220; conditions: 24 h; for survival of intracellular S. aureus: systemically delivered: dissolved zinc (300 μM), dissolved vancomycin (5.5 μM), versus 'no treatment'
Procedure: S. aureus strain RN4220 expressing mCherry fluorescent protein (S. aureus-mCherry) was used for in vitro studies. Bacterial inoculums were prepared by culturing S. aureus-mCherry in tryptic soy broth (TSB; BD Difco, Leeuwarden, the Netherlands) supplemented with 10 μg/mL chloramphenicol (Merck) shaking at 120 rpm and 37° C. to the mid logarithmic growth phase. S. aureus-mCherry bacteria were pelleted by centrifugation (3000 g, 10 min), re-suspended in 1 mL of NaCl and 0.25 mL human serum (H1 serum, Bio Whittaker, MD, USA) and incubated for 20 min. The inoculum was adjusted to 10^8 CFU/mL with RPMI based on the optical density value at wavelength 620 (OD620). The human THP-1 macrophages were seeded as described above in 96-well plates at a concentration of 100.000 cells/cm^2. After 48 h, the media was replaced by 1 μL of the bacterial inoculum (bacteria to cell ratio of 1:1) and incubated for 45 min at 37° C. and 5% CO2. Afterwards, the human THP-1 macrophages were washed three times with 50 μL PBS and one time with 200 μL PBS to prevent carry-over of planktonic S. aureus-mCherry. RPMI media supplemented with 5 μg/mL gentamycin (Sigma-Aldrich) was added to control the extracellular growth of S. aureus-mCherry.
The human THP-1 macrophages were allowed to phagocytose S. aureus-mCherry as described above. To investigate the intracellular killing efficiency of the synthesized NPs, RPMI media with 5 μg/ml gentamycin was enriched with 50 μg/ml of synthesized NPs for 24 h. Moreover, to assess the synergistic effect of zinc and vancomycin, a combination of 20 mol % ZnHA and VGelA NPs was added to the co-culture in different concentrations. After 24 h, the human THP-1 macrophages were lysed with 100 μl of 0.025% TritonX-100 to determine the amount of intracellular S. aureus-mCherry number. After lysis, the solution was serial diluted in PBS and spot-plated on agar plates. […] Additionally, the viability of the THP-1 macrophages is assessed using a LIVE/DEAD cell viability assay (Invitrogen, Waltham, MA, USA) as mentioned above. […]

human THP-1 macrophages [2] = assay: LIVE/DEAD cell viability assay of THP-1 macrophages with phagocytosed S. aureus; type: cell-based; conditions: systemic zinc 75 μM, 24 h
Procedure: Additionally, a LIVE/DEAD cell viability assay (Invitrogen, Waltham, MA, USA) was used according to the manufacturer's instructions to visualize the cells after 24 h of phagocytosis. In brief, 100 μL of 4 μM Ethidium homodimer 1 and 2 μM calcein AM solution in PBS was added to the human THP-1 macrophages and incubated for 30 min before visualization using a Leica SP8-X DLS Lightsheet microscope (Leica Microsystems, Wetzlar, Germany). Human THP-1 macrophages without phagocytosed S. aureus-mCherry served as negative control. The amount of living cells were quantified by counting using three LIVE/DEAD images and compared between macrophages with and without phagocytosed S. aureus.
The human THP-1 macrophages were allowed to phagocytose S. aureus-mCherry as described above. To investigate the intracellular killing efficiency of the synthesized NPs, RPMI media with 5 μg/ml gentamycin was enriched with 50 μg/ml of synthesized NPs for 24 h. Moreover, to assess the synergistic effect of zinc and vancomycin, a combination of 20 mol % ZnHA and VGelA NPs was added to the co-culture in different concentrations. […] Additionally, the viability of the THP-1 macrophages is assessed using a LIVE/DEAD cell viability assay (Invitrogen, Waltham, MA, USA) as mentioned above. […]

human THP-1 macrophages [3] = assay: Internalization of labelled nanoparticles in human THP-1 macrophages (confocal overlay); type: cell-based
Procedure: For cell culture experiments, human THP-1 macrophages (American Type Culture Collection, Manassas, USA) were maintained in Roswell Park Memorial Institute (RPMI) 1640 media supplemented with 2 mM Glutamine (GIBCO, New York, NY, USA) and 100/fetal bovine serum (FBS, Sigma-Aldrich). The human THP-1 macrophages were sub-cultured once a week and incubated at 37° C. in a humidified atmosphere containing 5% CO2. The human THP-1 macrophages were passaged by centrifugation when reaching a confluency of 10^6 cells/mL. In the following experiments, cell seeding is performed with media enriched with 50 ng/ml phorbol 12-myristate 13-acetate (PMA; Sigma-Aldrich) to allow for adherence of cells over 48 h.
Human THP-1 macrophages were cultured as described above and seeded with a density of 200.000 cells/cm^2 in an 8-well μ-slide (ibidi, Gräfelfing, Germany) for 48 h. Labeled NPs were diluted in RPMI cell culture medium to reach a final concentration of 50 μg/mL. Afterwards 200 μL particle suspension was added to the human THP-1 macrophages. […] The image analysis software Fiji was used for the reconstruction of images, and the plugin “co-localization finder” was used to visualize the overlaying signal in white and quantify the fluorescence overlay of different channels.

Row | Compound | survival of intracellular S. aureus [1] | effect on intracellular S. aureus survival ([1]; systemic zinc 75 μM) | amount of alive cells (LIVE/DEAD images) (human THP-1 macrophages [2]) | internalization by human THP-1 macrophages (human THP-1 macrophages [3]; dissolved, no NPs) | Overlay (%) (human THP-1 macrophages [3]; fluorescently labelled NPs 50 μg/mL in THP-1 macrophages, confocal co-localization)
1 | CN[C@H](CC(C)C)C(=O)N[C@H]1C(=O)N[C@@H](CC(N)=O)C(=O)N[C@H]2C(=O)N[C@H]3C(=O)N[C@H](C(=O)N[C@H](C(=O)O)c4cc(O)cc(O)c4-c4cc3ccc4O)[C@H](O)c3ccc(c(Cl)c3)Oc3cc2cc(c3O[C@@H]2O[C@H](CO)[C@@H](O)[C@H](O)[C@H]2O[C@H]2C[C@](C)(N)[C@H](O)[C@H](C)O2)Oc2ccc(cc2Cl)[C@H]1O [vancomycin] | did not cause a significant reduction |  |  |  | 
2 | [Zn] [zinc] | did not cause a significant reduction | reduction of intracellular S. aureus survival | visually decreased the amount of alive cells |  | 
3 | FITC-vancomycin |  |  |  | inability | 0

From patent US20260225889A1, “Spherical nanoparticles for improved composite materials” (Stichting Radboud universitair medisch centrum, priority 2023, published 2026)
